Experimental data: US6183953A, “Chromosomal mutagenesis in Pichia methanolica” (ZymoGenetics, Inc., priority 1997, dated 2001)

Test system: P. methanolica cells (strain CBS6515, UV-mutagenized)
Experiment: Nystatin enrichment for auxotrophic mutants; titering of nystatin-treated versus control cells for colony forming units
Type: cell-based, Pichia methanolica
Conditions: 1 mg nystatin added to the remainder of a 500 ml culture in minimal broth with 5 g/L ammonium sulfate, incubated 1 hour with shaking
Procedure: Large-scale mutagenesis was then carried out using a 2-second UV exposure to provide about 20% killing. Cells were plated at approximately 10^4 cells/plate onto eight YEPD plates that were supplemented with 100 mg/L each of uracil, adenine, and leucine, which were added to supplement the growth of potential auxotrophs having the cognate deficiencies. Following UV exposure the plates were wrapped in foil and incubated overnight at 30° C. The following day the colonies on the plates (^~ 10^5 total) were resuspended in water and washed once with water. An amount of cell suspension sufficient to give an OD600 of 0.1-0.2 was used to inoculate 500 ml of minimal broth made with yeast nitrogen base without amino acids or ammonia, supplemented with 1% glucose and 400 μg/L biotin. The culture was placed in a 2.8 L baffled Bell flask and shaken vigorously overnight at 30° C. The following day the cells had reached an OD600 of ^~ 1.0-2.0. The cells were pelleted and resuspended in 500 ml of minimal broth supplemented with 5 g/L ammonium sulfate. The cell suspension was placed in a 2.8 L baffled Bell flask and shaken vigorously at 30° C. for 6 hours. 50 ml of the culture was set aside in a 250-ml flask as a control, and to the remainder of the culture was added 1 mg nystatin (Sigma Chemical Co., St. Louis, Mo.) to select for auxotrophic mutants (Snow, Nature 211:206-207, 1966). […]

C[C@@H]1[C@H](O)[C@@H](C)/C=C/C=C/CC/C=C/C=C/C=C/C=C/C(O[C@H]2O[C@H](C)[C@@H](O)[C@H](N)[C@@H]2O)CC2O[C@](O)(CC(O)C(O)CCC(O)CC(O)CC(O)CC(=O)O[C@H]1C)CC(O)C2C(=O)O (stereo partly shown) [nystatin]
decrease in the number of viable cells (colony forming units), factor versus control cells: 10^4
